Three compounds from paper PMC11803614 (2025) can be followed below.

Holding throughout (assay): electrochemical aptamer-based sensor, square-wave voltammetry titration (KDM)
In test [1] the test system is procaine (DNA, aptamer) AGACAAGGAAAATCCTTCAACGAAGTGGGTCG
Conditions: undiluted bovine blood, room temperature and 37 °C; 0% carboxylate SAM; no Kd, upper plateau not reached.

The test system of test [2] is vanc-28 (DNA, aptamer) GCGAGGGTACCGCTTAAAGTGGGTCGGC
Conditions: PBS (ion concentrations not given), room temperature, 0% carboxylate (6-mercaptohexanol) SAM, immobilised aptamer.

Test [3] has as its system vanc-45 (also printed vanc-48) (DNA, aptamer) CGAGGGTACCGCAATAGTACTTATTGTTCGCCTATTGTGGGTCGG
Conditions: PBS (ion concentrations not given), room temperature, 0% carboxylate (6-mercaptohexanol) SAM, immobilised aptamer.

In test [4] the test system is tryptophan (DNA, aptamer) CCGGTGGTGTAGTTCCGGCGTGGGGAAGG
The conditions noted are these: PBS (ion concentrations not given), room temperature, 0% carboxylate SAM, immobilised aptamer, biphasic, higher affinity event.

For the compound `CCN(CC)CCOC(=O)c1ccc(N)cc1`, the binding result in test [1] was “yes”.
With `CN[C@H](CC(C)C)C(=O)N[C@H]1C(=O)N[C@@H](CC(N)=O)C(=O)N[C@H]2C(=O)N[C@H]3C(=O)N[C@H](C(=O)N[C@H](C(=O)O)c4cc(O)cc(O)c4-c4cc3ccc4O)[C@H](O)c3ccc(c(Cl)c3)Oc3cc2cc(c3O[C@@H]2O[C@H](CO)[C@@H](O)[C@H](O)[C@H]2O[C@H]2C[C@](C)(N)[C@H](O)[C@H](C)O2)Oc2ccc(cc2Cl)[C@H]1O`, the values for the Kd in test [2] and in test [3] were 0.6 ± 0.1 µM and 15.2 ± 0.4 µM, respectively.
In test [4], `N[C@@H](Cc1c[nH]c2ccccc12)C(=O)O` yielded a Kd of 13.0 ± 1.4 µM. In other words, the double-digit micromolar range.
